Measurements: ChEMBL document CHEMBL1142649, “Asymmetric synthesis of novel tetrahydroquinoline derivatives with a sugar building block and their bioactivities” (Bioorg Med Chem Lett, 2005)
In brackets after ≈: the same amount, converted by molar mass.

Experiments:
HeLa = assay: Inhibitory concentration against human cervical carcinoma cell line at 48 hours; assay type: functional, cell-based
[1] = Inhibitory concentration against human esophagus cancer cell line at 72 hours; assay type: functional, cell-based; settings: cancer cell lines

SMILES: CC(=O)O[C@@H]1COC2C1OCC21Nc2ccc(C)cc2[C@]2(Nc3ccc(C)cc3)C3OC[C@@H](OC(C)=O)C3OC12 (some centres not stated)
- IC50 (HeLa): 150 µg/mL (≈ 272 µM)
- IC50 [1]: 135 µg/mL (≈ 245 µM)

SMILES: COc1ccc(N[C@]23c4cc(OC)ccc4NC4(COC5[C@H](O)CO[C@@H]54)C2OC2C3OC[C@H]2O)cc1 (some centres not stated)
- IC50 (HeLa): 648 µg/mL (≈ 1300 µM)
- IC50 [1]: > 1000 µg/mL

SMILES: O[C@@H]1COC2C1OCC21Nc2ccccc2[C@]2(Nc3ccccc3)C3OC[C@@H](O)C3OC12 (some centres not stated)
- IC50 (HeLa): > 1000 µg/mL
- IC50 [1]: > 1000 µg/mL

SMILES: Cc1ccc(N[C@]23c4cc(C)ccc4NC4(COC5C4OC[C@H]5O)C2OC2C3OC[C@H]2O)cc1 (some centres not stated)
- IC50 (HeLa): > 1000 µg/mL
- IC50 [1]: 240 µg/mL (≈ 514 µM)

SMILES: Oc1ccc(NC23c4cc(O)ccc4NC4(COC5C4OC[C@H]5O)C2OC2C3OC[C@H]2O)cc1 (some centres not stated)
- IC50 (HeLa): > 1000 µg/mL
- IC50 [1]: 78 µg/mL (≈ 166 µM)

SMILES: Cc1cccc(NC23c4ccc(C)cc4NC4(COC5C4OC[C@H]5O)C2O[C@H]2C3OC[C@H]2O)c1 (some centres not stated)
- IC50 (HeLa): 276 µg/mL (≈ 592 µM)
- IC50 [1]: 95 µg/mL (≈ 204 µM)
